The results in this text go back to PMC12259270, “Sensory neuron–expressed FGF13 controls nociceptive signaling in diabetic neuropathy models” (The Journal of Clinical Investigation, 2025).

Structures are written as SMILES. Several values for one entry are separate records, joined by “and”; a condition that tells them apart may be missing. Equal values may be shown once. Residues, ends and D or L forms follow the SMILES beside them. *: point of attachment. Cbz = O=C(OCc1ccccc1)*; NHPh = c1ccc(N*)cc1; OtBu = CC(C)(C)O*

For one assay, the system named is C57BL/6 mice. The assay can be described thus: Mechanical allodynia/hyperalgesia induced by intrathecal AAV2-FGF13-GFP (von Frey). In kind it is in vivo, mouse.
Assay [1] has as its target T1, FGF13/Nav1.7M1830A complex (Homo sapiens, UniProt Q15858+Q92913, M1830A).
T1 construct: Full-length FGF13-1b (aa 1-192) was subcloned into appropriate plasmids; Nav1.7 residues 1780-1977; expressed in transfected cells; host or cells: HEK293 (inferred; the LCA paragraph only says 'cells')
The assay can be described thus: LCA, CLuc-FGF13/CD4-Nav1.7M1830A-NLuc. The following applies: ZL192 50 μM. In kind it is cell-based. The text has this:
The respective gene ID numbers used in this study are as follows: NM_033642 (human, FGF13-1b) and NM_002977 (human SCN9A). Full-length FGF13-1b (aa 1-192) was subcloned into appropriate plasmids for use in this investigation, unless otherwise noted. For consistency with AlphaFold modeling presented, numbering of point mutations to FGF13-1b are based on the longest FGF13 isoform (FGF13-1a, NM_004114.2). CLuc-FGF13, […]
and constructs expressing the CLuc or the NLuc fragments of Firefly ( Photinus pyralis) luciferase (24) respectively were engineered, mutated (CLuc-FGF13R110A) and sequenced at the Molecular Genomics Core (University of Texas Medical Branch). […]
Twenty-four hours post transfection, cells were trypsinized using TrypLE (Gibco; cat # 12604013), centrifuged at 1750 rpm for 5 min, triturated in medium, and seeded into white clear-bottom 96-well CELLSTAR µClear® plates (Greiner Bio -One; cat # 655073 ) at ~0.8 x 10^5 cells per well in 200 µl of medium. […] The bioluminescence reaction was initiated by injection of 100 μl of D -luciferin substrate (1.5 mg/ml dissolved in PBS) using a Synergy H4 multimode microplate reader (BioTek). Luminescence readings were initiated after 3 s of mild plate shaking and performed at 2 min intervals for 20-30 min with integration times of 0.5 s, and the c ells were maintained throughout the measurements at 37 °C. […]

T1 sequence (Q92913 1-192 isoform Q92913-2, stated change not applied): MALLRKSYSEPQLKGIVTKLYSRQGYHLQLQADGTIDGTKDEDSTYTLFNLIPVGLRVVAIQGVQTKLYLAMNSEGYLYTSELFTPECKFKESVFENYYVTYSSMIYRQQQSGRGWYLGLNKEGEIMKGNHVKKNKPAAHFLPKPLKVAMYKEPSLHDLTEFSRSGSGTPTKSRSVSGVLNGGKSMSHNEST
T1 sequence (Q15858 1791-1988 M1830A): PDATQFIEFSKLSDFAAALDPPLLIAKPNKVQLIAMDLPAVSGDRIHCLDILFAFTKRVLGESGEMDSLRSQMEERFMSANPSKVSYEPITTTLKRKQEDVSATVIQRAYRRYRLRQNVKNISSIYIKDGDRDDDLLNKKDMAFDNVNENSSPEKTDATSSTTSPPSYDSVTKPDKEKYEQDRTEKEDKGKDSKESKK

For `COC(=O)[C@@H](NC(=O)[C@H](CCC(=O)OC(C)(C)C)NC(=O)[C@H](CC(C)C)NC(=O)[C@@H]1CCCN1C(=O)OCc1ccccc1)C(C)C` [PW164] (Cbz-PLE(OtBu)V-OMe), the HVF in the assay with C57BL/6 mice (Figure 6E, PW164 0.7 mg/ml, 1h 30 min) was 36.67 and 43.33 and 50 and 46.67 and 33.33 and 40. The “allodynia and hyperalgesia in AAV2-FGF13-GFP mice” value in the assay with C57BL/6 mice (day 68, PW164 5 μL, 0.7 mg/mL) is “complete recovery”.

As for `CC(=O)N[C@@H](Cc1ccccc1)C(=O)N[C@@H](CC(C)C)C(=O)N1CCC[C@H]1C(=O)N[C@@H](CCCCN)C(=O)Nc1ccccc1` [ZL192] (Ac-FLPK-NHPh), the “agonist activity against the FGF13/Nav1.7M1830A complex” value in assay [1] is listed as “no agonist activity”.
